Data set [1] concerns IL-6. The data set can be described thus: IL-6 expression in HaCaT cells stimulated with IL-17A and TNFα (ELISA). Format: cell-based. The note with it: Homo sapiens, read-out: Reduction IL-6 (%).
Data set [2] deals with HDFn neonatal dermal fibroblast cell line. The data set can be described thus: Antiproliferative activity (NCI procedure, sulforhodamine B), HDFn. The settings on record: 48 h; for GI50: Table 2. Format: cell-based, human. The gist of the method: (§1)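 Cells seeded in DMEM, grown 24 h at 37 °C, then exposed 48 h to serial dilutions from 100 μM to 781 nM (DMSO <0.5%). TCA fixation, sulforhodamine B staining, absorbance at 530-568 nm; growth inhibition relative to plates fixed on treatment day. At least two experiments in triplicate.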

A further data set deals with cancer cell lines. The settings on record: background, refs [4, 5]; in words; cited from earlier work.
For a further data set, the system named is HaCaT cells. As to the kind of experiment: Cell cycle analysis by flow cytometry. It counts as cell-based, human. The settings on record: for Cell cycle progression G0-G1 / Cell cycle progression G2-M / Cell cycle progression S: 10 μM, 24 h; for effect on cell cycle progression: in words. Here is the method: The effect of compounds 3a-b, 4e, 5b-c, 6a and 6e on cell cycle progression was subsequently assessed using a flow cytometer in accordance with established experimental protocols to evaluate any potential drug toxicity at specific phases of the cell cycle (Table 3).
HaCaT cells (2.5×10^5) were incubated with compounds 3a-b, 4e, 5b-c, 6a and 6e and curcumin (10 μM) over a period of 24 h. The cells were subsequently trypsinized, washed with PBS, resuspended in PBS (250 μL), fixed by the addition of ice-cold EtOH (750 μL) under agitation and stored at −20° C. until analysis. Prior to FACS analysis, cells were washed with PBS and resuspended in PBS (500 μL) containing 4′,6′-diamidino-2-phenylindole (DAPI) (2 μg/mL). The cell cycle was analyzed using an LSR II flow cytometer (BD Biosciences, Franklin Lakes, N.J.).

The subject of data set [3] is IL-6. As to the kind of experiment: IL-6 expression in HaCaT cells stimulated with IL-17A and TNFα (ELISA). Format: cell-based, human. The note with it: for Expression of IL-6, HaCaT: 10 μM solutions, HaCaT stimulated with IL-17A and TNFα, mean of five experiments in duplicate; for effect on the expression of IL-6 by HaCaT cells: HaCaT cells treated with IL-17 and TNFα, in words. The text has this:
The effect of compounds 3a-b, 4a-e, 5a-e and 6a-e on the expression of IL-6 was subsequently assessed using the HaCaT spontaneously transformed aneuploid immortal keratinocyte cell line, stimulated by the addition of IL-17A and TNFα in the culture medium (Table 1). Curcumin and ibuprofen were used as known IL-6 expression inhibitors. DMSO was used for solubilizing the drugs. […] Indeed, the inhibitory effect of these molecules was at least equivalent to that of curcumin [27] and ibuprofen, both recognized as anti-inflammatory drugs. The inhibitory effect of the substituted phenyl cycloalkylureas in accordance with an embodiment of the present disclosure on proinflammatory cytokines was also found at the mRNA level. Indeed, the mRNAs of the cytokines IL-6 and TNF-α as well as the mRNA of the chemokine IL-8 were lowered in TNF-α/IL-17A-stimulated HaCaT cells. Similar results were obtained in THP-1 cells stimulated with LPS where treatments with CHEU and 4e diminished the mRNA levels of the cytokines IL-1B, IL-6 and TNF-α in addition to the mRNA levels of the chemokine IL-8. It is surmised that the anti-inflammatory mechanism of action of the compounds of the present disclosure is likely mediated, at least in part, by modulating the phosphorylation state of the MAP kinase p38. […] Addition of a compound in accordance with an embodiment of the present disclosure, prior to stimulation with the aforementioned cytokines, decreases the level of p-p38 at 30-60 minutes post-stimulation. This diminution in p-p38 levels destabilizes the mRNAs of pro-inflammatory cytokines, non-limiting examples of which include TNF-α and IL-6. Moreover, it is surmised that the effect of the compounds of the present disclosure on p-p38 is potentially mediated by the activation of the phosphatase named DUSP1.
HaCaT cells (1×10^5) were suspended in DMEM culture media (500 μL) and incubated for 24 h in 24-well microtiter plates at 37° C. in a moisture-saturated atmosphere containing 5% CO2. Compounds were solubilized in DMSO and diluted in fresh DMEM. The compound (500 μL) was then added to the cell medium to obtain a final concentration of […] and the cells incubated over a period of 1 hour. In the meantime, IL-17α (200 ng/mL) and TNFα (20 ng/mL) (PeproTech, Rocky Hill, N.J.) were added to the drug solution in DMEM. Following the initial incubation of the cells, the culture medium was aspirated from each well and the IL-17α+ TNFα+ compound solution was added to each well for incubation (6 hours). The culture media was then removed and transferred to a clean tube (1.5 mL) at −80° C. until the ELISA test was performed. The presence of IL-6 in the cell media was determined using an IL-6 human Duoset ELISA kit (Fisher Scientific, Ottawa, On.) according to the manufacturer's instructions. Standards and samples were prepared and assessed in duplicate. Two separate replicates were performed for each sample. The absorbance was measured at 450 nm and 540 nm using a TECAN infinite M1000 plate reader.

Data set [4] has as its system HaCaT keratinocyte cell line. As to the kind of experiment: Antiproliferative activity (NCI procedure, sulforhodamine B), HaCaT. The settings on record: 48 h; for GI50: Table 2. It counts as cell-based, human. The gist of the method:
as §1

The test system of data set [5] is A549 adenocarcinoma alveolar epithelial cancer cells. The data set can be described thus: Antiproliferative activity (NCI procedure, sulforhodamine B), A549. It counts as cell-based, human. The settings on record: 48 h; for GI50: Table 2. An outline of the steps:
as §1

Data set [6] deals with HT-29 colon adenocarcinoma cells. The data set can be described thus: Antiproliferative activity (NCI procedure, sulforhodamine B), HT-29. Format: cell-based, human. The note with it: 48 h; for GI50: Table 2. The gist of the method:
as §1

The subject of data set [7] is mRNAs of IL-1B, IL-6, TNF-α and IL-8. As to the kind of experiment: mRNA levels of cytokines in THP-1 cells stimulated with LPS. The note with it: in words. It counts as cell-based. From the text:
The effect of compounds 3a-b, 4a-e, 5a-e and 6a-e on the expression of IL-6 was subsequently assessed using the HaCaT spontaneously transformed aneuploid immortal keratinocyte cell line, stimulated by the addition of IL-17A and TNFα in the culture medium (Table 1). Curcumin and ibuprofen were used as known IL-6 expression inhibitors. DMSO was used for solubilizing the drugs. […] Indeed, the inhibitory effect of these molecules was at least equivalent to that of curcumin [27] and ibuprofen, both recognized as anti-inflammatory drugs. The inhibitory effect of the substituted phenyl cycloalkylureas in accordance with an embodiment of the present disclosure on proinflammatory cytokines was also found at the mRNA level. Indeed, the mRNAs of the cytokines IL-6 and TNF-α as well as the mRNA of the chemokine IL-8 were lowered in TNF-α/IL-17A-stimulated HaCaT cells. Similar results were obtained in THP-1 cells stimulated with LPS where treatments with CHEU and 4e diminished the mRNA levels of the cytokines IL-1B, IL-6 and TNF-α in addition to the mRNA levels of the chemokine IL-8. It is surmised that the anti-inflammatory mechanism of action of the compounds of the present disclosure is likely mediated, at least in part, by modulating the phosphorylation state of the MAP kinase p38. […]

Like-named read-outs stand apart in the source and are kept apart here.

Regarding `C[C@@H]1C[C@H]2[C@@H]3CCC4=CC(=O)C=C[C@]4(C)[C@@]3(F)[C@@H](O)C[C@]2(C)[C@@]1(O)C(=O)CO` [Dexamethasone], the inhibition at 1 µM in the data set with IL-6 [1] (Table 6, HaCaT stimulated with IL-17A and TNFα) is 45.3%; with IL-6 [1] (Table 8, HaCaT stimulated with IL-17A and TNFα), 54.5%.

Take `CC(C)(C)c1ccc(NC(=O)NCCCl)cc1` [tBCEU, reference compound]: it took 11 µM to inhibit growth in [2] by half (GI50). In addition, the “antiproliferative activity on numerous cancer cell lines” value in the data set with cancer cell lines was “potent antiproliferative activity”. Moreover, in the data set on HaCaT cells, the “Cell cycle progression G0-G1” value stood at 57.3, the “Cell cycle progression G2-M” value was 15.6, the “Cell cycle progression S” value was determined as 26.8 and the “effect on cell cycle progression” value is given as “arresting the cell cycle progression in the G2-M phase”. In the data set on IL-6 [3], the “Expression of IL-6, HaCaT” value is reported as 130.6 ± 15.6 pg/mL and the “effect on the expression of IL-6 by HaCaT cells” value is “significant decrease”. The same compound yielded a GI50 in [4] of 12 µM. This compound displayed a GI50 in [5] of 6.9 µM. Further, in [6], the GI50 amounted to 6.5 µM.

On to `O=C(NCCCl)Nc1ccc(C2CCCCC2)cc1` [cHCEU, 1-(2-chloroethyl)-3-(p-cyclohexylphenyl)urea, reference compound], for which the GI50 in data set [2] (Homo sapiens, Fibroblast) stood at 11 µM. The “antiproliferative activity on numerous cancer cell lines” value in the data set with cancer cell lines is reported as “potent antiproliferative activity”. In the data set with HaCaT cells, the “Cell cycle progression G0-G1” value is on record as 56.5, the “Cell cycle progression G2-M” value was determined as 19.1 and the “Cell cycle progression S” value is recorded as 24.4. Besides, in the data set on IL-6 [3], the “Expression of IL-6, HaCaT” value was 46.8 ± 8.5 pg/mL and the “effect on the expression of IL-6 by HaCaT cells” value is “significant decrease”. For the same compound, the GI50 in data set [4] (Homo sapiens, HaCaT) was 27 µM. This compound also yielded a GI50 in data set [5] (Homo sapiens, A549) of 12 µM. In data set [6] (Homo sapiens, HT-29), this compound registered a GI50 of 15 µM.

On to `O=C(Nc1ccc(C2CCCCC2)cc1)NC1CC1` [Compound 54, 1-(4-Cyclohexylphenyl)-3-cyclopropylurea], for which the melting point fell in the range of 173 to 176 °C. In addition, in data set [7], the “mRNA levels of the cytokines IL-1B, IL-6 and TNF-α and of the chemokine IL-8” value was “diminished”. The compound also came in with a GI50 in data set [2] (Homo sapiens, Fibroblast) of 40 µM. In data set [2] (Homo sapiens, Fibroblast, Table 6, unit inferred, tested 781 nM to 100 μM), the IC50 came to 40 µM. Further, in the data set with HaCaT cells, the “Cell cycle progression G0-G1” value came to 47.7, the “Cell cycle progression G2-M” value is on record as 28.1, the “Cell cycle progression S” value is listed as 24.2 and the “effect on cell cycle progression” value is reported as “did not affect the cell cycle progression”. Moreover, the “Expression of IL-6, HaCaT” value in the data set on IL-6 [3] worked out at 29.2 ± 3.5 pg/mL. The compound further showed a GI50 in data set [4] (Homo sapiens, HaCaT) of 74 µM. In addition, inhibition in [4] (Homo sapiens, HaCaT, Table 6, unit inferred, tested 781 nM to 100 μM) was half-maximal at 74 µM (IC50). In [5] (Homo sapiens, A549), this compound registered a GI50 of 48 µM. Half-maximal inhibition in data set [5] (Homo sapiens, A549, Table 6, unit inferred, tested 781 nM to 100 μM) (IC50) was put at 48 µM. In [6] (Homo sapiens, HT-29), the GI50 was 54 µM. The compound also came in with an IC50 in data set [6] (Homo sapiens, HT-29, Table 6, unit inferred, tested 781 nM to 100 μM) of 54 µM.

The record behind these values is patent US20210163404A1, “NOVEL UREA COMPOUNDS AND BIOISOSTERES THEREOF AND THEIR USE FOR TREATING INFLAMMATION AND INFLAMMATION-RELATED PATHOLOGIES” (UNIVERSITÉ LAVAL, priority 2017, published 2021).
